Key:
[1] = Fast Stability Test (solid stored on a plate at 40° C. in air, impurity by HPLC); assay type: physicochemical; settings: for N-demethyl-derivative of CDB-4124: largest degradation product; for N-demethyl-derivative of CDB-4124 / Impurity: HPLC; for Impurity: stored on a plate at 40° C. in the presence of air
Procedure: Amorphous and crystalline forms were stored on a plate at 40° C. in the presence of air for 10 days. Impurity was measured at different times using HPLC equipment. […]

[2] = Water adsorption properties by dynamic vapour sorption (DVS); assay type: physicochemical
Procedure: From the examination of water adsorption properties important conclusions can be made about the physical and chemical stability of a compound. Amorphous compounds can adsorb more water from the air. This property is deliberately disadvantageous during the preparation process of a pharmaceutical composition, since the real amount of the active ingredient can't be measured because of the adsorbed water.
Water adsorption properties of the compounds were measured by dynamic vapour sorption technique (DVS). […]

Structure (SMILES): COCC(=O)[C@@]1(OC(C)=O)CC[C@H]2[C@@H]3CCC4=CC(=O)CCC4=C3[C@@H](c3ccc(N(C)C)cc3)C[C@@]21C [Form A, 17α-acetoxy-21-methoxy-11β-[4-N,N-dimethylaminophenyl]-19-norpregna-4,9-diene-3,20-dione]
- stability (purity examination) ([1]; 40° C., air, 10 days, compared with amorphous form): much better than that of the amorphous form
- N-demethyl-derivative of CDB-4124 ([1]; Day 0, 40° C., air): 0.18%
- Impurity ([1]; Day 0): 0.33%
- N-demethyl-derivative of CDB-4124 ([1]; Day 1, 40° C., air): 0.18%
- Impurity ([1]; Day 1): 0.33%
- N-demethyl-derivative of CDB-4124 ([1]; Day 2, 40° C., air): 0.18%
- Impurity ([1]; Day 2): 0.35%
- Impurity ([1]; Day 6): 0.43%
- N-demethyl-derivative of CDB-4124 ([1]; Day 10, 40° C., air): 0.23%
- Impurity ([1]; Day 10): 0.48%
- mass change as the degree of humidity was increased ([2]; DVS, 25° C., 0%-90% relative humidity): barely changed
- physical stability on change in relative humidity ([2]; room-temperature, independently of a change in relative humidity): stable anhydrate

Structure (SMILES): COCC(=O)[C@@]1(OC(C)=O)CC[C@H]2[C@@H]3CCC4=CC(=O)CCC4=C3[C@@H](c3ccc(N(C)C)cc3)C[C@@]21C [Amorphous form, 17α-acetoxy-21-methoxy-11β-[4-N,N-dimethylaminophenyl]-19-norpregna-4,9-diene-3,20-dione, reference compound]
- water adsorbed (max.) ([2]; DVS, 25° C., 0%-90% relative humidity, as humidity was increased): 2 m/m %
